Literature values, collected in patent US9688630B2, “3,3′-disubstituted indolines as inhibitors of cholesterol ester transfer protein” (Merck Sharp & Dohme Corp., priority 2013, dated 2017).

Conditions: torcetrapib and atorvastatin concomitantly, compared with atorvastatin alone; cited from earlier work

## CCOC(=O)N1c2ccc(C(F)(F)F)cc2[C@@H](N(Cc2cc(C(F)(F)F)cc(C(F)(F)F)c2)C(=O)OC)C[C@H]1CC [torcetrapib]
  incidence of mortality: higher incidence of mortality
